We go through 2 molecules from patent publication US10273313B2, “Multimeric mannosides, a process for preparing the same and their uses as a drug” (CENTRE NATIONAL DE LA RECHERCHE SCIENTIFIQUE, priority 2012, dated 2019).

SMILES strings stand for the structures. Converted amounts (≈) assume the structure as drawn. Where two headings read alike, the source gives them in different places. A value given as a limit tells only on which side of the number the result lay.

Experiment [1] has as its system type-1 piliated clinical E. coli isolate UTI89. Nature of the experiment: Haemagglutination inhibition assay (HIA), guinea pig erythrocytes. Type of experiment: cell-based, Escherichia coli. The note with it: read-out: Minimal inhibitory concentration (MIC) on haemagglutination. Here is the method:
Haemagglutination is observed as the red blood cells being held in suspension through the formation of a space-filling cross-linked network with the fimbriated bacteria.
The UIT89 clinical isolate was grown statically 37° C. for 48 hours in LB medium and analysed for haemagglutination of guinea pig red blood cells. Both bacteria and red blood cells (RBCs) were washed 3 times in ice-cold PBS (17 mM K/NaH2PO4, 150 mM NaCl). PBS was used for all dilutions. 96-well round-bottom microtiter plates were used for the dilutions. The titer for agglutination was determined in a 2-fold dilution series in PBS of the bacteria in a volume of 25 μL. Well 1 is a negative control without bacteria but 25 μL PBS. 25 μL PBS and 50 μL 5% RBCs were added to a final 100 μL volume. Upon 1 hour at 4° C., the titer was determined as the lowest concentration of bacteria that led to haemagglutination.
A bacterial concentration of twice the determined haemagglutination titer was kept constant in the haemagglutination inhibition assays. First, a 2-fold dilution series of the inhibitory compounds was performed in 25 μL PBS. Instead, in well 1 only 25 μL PBS was added as a negative control. 25 μL of the bacterial solution and 50 μl of 5% red blood cells were added to reach a final volume of 100 μL.

For experiment [2], the target named is T1, monovalent lectin domain of FimH (Escherichia coli, UniProt P08191).
T1 construct: with the monovalent lectin domain of FimH were measured using isothermal calorimetry (ITC)
It counts as binding. The note with it: for Kd / Molar ratio n meas / ΔG° / ΔH° / ΔS°: direct titration; for Kd: read-out: Kd.

Experiment [3] concerns E. coli strain UTI89 in the bladder of C3H/HeN mice. In words: In vivo inhibition in the murine cystitis model (instillation with UTI89). Here is the method: In vivo inhibition was evaluated by instilling 1-4 together with the UTI89 strain via a catheter in the bladder of C3H/HeN mice. […] A group of ten animals was used for each concentration of antagonists. […] The animals were sacrificed at a 6 h post infection time.
A murine model of urinary tract infection was used to test the ability of the compounds to inhibit the colonization of UTI89 in the bladder [Hung C. S.; Dodson, K. W., Hultgren S. J. Nat. Protoc. 2009, 4, 1230-1243 and Wellens A.; Garofalo C.; Nguyen H.; Van Gerven N.; Slättegård R.; Hernalsteens, J.-P.; Wyns, L.; Oscarson, S.; De Greve H.; Hultgren S. J.; Bouckaert, J. PLoS ONE 2008, 3, e2040]. The solution with high concentration of compounds was added to the resuspension of UTI89 before given to the mice. The eight-week old Female C3H/HeN mice (Harlan, Horst, The Netherlands) were anesthetized and infected via transurethral catheterization of 10^7 CFU UTI89 in solution in PBS, or in PBS with the compound in the mentioned concentration. The mice were sacrificed at 24 hours post infection and the bladders were harvested, homogenized and resuspended in PBS. The serial dilutions were spot on LB medium agar plates. The bacterial load was determined by counting the CFU recovered from the bladder. The animal experiments were approved by the Ethical Committer for Animal Experiments of Vrije Universiteit Brussel and complied with all relevant national legislation and institutional policies. The Mann-Whitney test was applied for the comparison of the data obtained from the untreated group and inhibition group in GraphPad Prism version 5.1 and two tailed P value were shown (GraphPad software).
A limited number of papers described the in vivo efficiency of anti-adhesive mannosides to treat UTIs.

In experiment [4] the test system is AIEC LF82 bacteria adhesion to T84 intestinal epithelial cells. In words: Adhesion assay on T84 cells, pre-, co- and post-incubation protocols (Example 21.2). Type of experiment: cell-based, Escherichia coli. How it is done: (§1) E. coli strain LF82 was isolated from a chronic ileal lesion of a patient with Crohn's disease (CD). Bacteria were grown routinely in Luria-Bertani (LB) broth overnight at 37° C. Intestinal epithelial cells T84 derived from colonic adenocarcinoma were maintained in an atmosphere containing 5% CO2 at 37° C. in DMEM/F12 (50/50) medium supplemented with 10% (v/v) heat-inactivated fetal calf serum (FCS), 1% L-glutamine, 100 000 U·l^−1 penicillin, 100 mg·l^−1 streptomycin, 25 μg·l^−1 amphotericin B.
T84 were seeded in 48-well plates at a concentration of 1.5×10^5 cells per well and grown for 48 h. AIEC LF82 bacteria were incubated 1 h with each mannoside prior the cell infection (pre-incubation protocol) or they were added simultaneously onto the cells (co-incubation protocol) in complete medium without antibiotics, containing heat inactivated fetal calf serum (FCS). Heptyl-mannose or compound 2 (example 1) were tested at a dose of 100; 10; 1 or 0.1 μM. D-D-mannose was tested at a dose of 10 000; 1 000; 100 or 10 μM and compound 1 (example 2bis) was tested at a concentration of 500; 100; 10 or 1 μM. Cells were infected with AIEC LF82 bacteria at a multiplicity of infection (MOI) of 10 bacteria per cell for 3 h at 37° C. For the post-incubation protocol, mannosides were incubated with cells for 3 h after bacterial infection. A washing step was realized before this post-incubation to eliminate non-adherent bacteria. Monolayers were washed in phosphate-buffered saline (PBS; pH 7.2) and cells were then lysed with 1% Triton X-100 in deionized water. Samples were diluted and plated onto Luria Bertani agar plates to determine the number of colony-forming units (CFU) recovered from the lysed monolayers. Results were expressed as percentages of residual adhesion, considering adhesion level of AIEC LF82 without mannoside treatment as 100%.

The next experiment has as its system bladder cell line 5637. Nature of the experiment: Anti-adhesives for bacterial bladder cell binding. It counts as cell-based. As to conditions: ten-fold dilution series. How it is done: The anti-adhesive capacities of the HM-derivatized cyclodextrins 1-4 were tested in vitro on the bladder cell line 5637, in a procedure analogous as previously described (Wellens, A. et al., PLoS ONE 3: e2040 (2008)). The CD conjugates 1-4 were diluted in a ten-fold series. The minimum inhibitory concentrations (MIC) indicate the concentrations of sugars at which we see some inhibition of binding of FimH to the bladder cells, they do however not indicate complete inhibition. MIC values for the CD-conjugates 1-4 followed a similar trend as the inhibitory concentrations recorded in HIA.
The anti-adhesive capacities of the n-heptyl α-D-mannoside-derivatized cyclodextrins 1-4 were tested in vitro on the bladder cell line 5637, in a procedure analogous to as described in (Wellens, A. et al., PLoS ONE 3: e2040 (2008)). The ligands have been diluted 10-fold and this is also the resolution limit of these tests.

The test system of experiment [5] is AIEC LF82 strain adhesion to T84 intestinal epithelial cells. Nature of the experiment: Adhesion assay on T84 cells, cells incubated 1 h with mannoside prior infection (Example 21.1). Type of experiment: cell-based, Escherichia coli. How it is done:
as §1
T84 cells were seeded in 48-well tissue culture plates with 1.5×10^5 cells per well and grown for 48 h. Cells were incubated 1 h prior infection with each mannoside at a final concentration of 100; 10; 1 or 0.1 μM in complete medium without antibiotics, containing heat inactivated fetal calf serum (FCS) and were next infected with AIEC LF82 strain at a multiplicity of infection (MOI) of 10 bacteria per cell. After a 3 h incubation period at 37° C., the monolayers were washed in phosphate-buffered saline (PBS; pH 7.2). The epithelial cells were then lysed with 1% Triton X-100 in deionized water. Samples were diluted and plated onto Luria Bertani agar plates to determine the number of cfu recovered from the lysed monolayers.
Results were expressed in percentage of residual adhesion, considering adhesion level of AIEC LF82 without mannoside treatment as 100%.

Experiment [6] relates to AIEC LF82 bacteria in colonic loops of CEABAC10 mice expressing human CEACAM6. Nature of the experiment: Adhesion assay in colonic loops of CEABAC10 mice. It counts as in vivo. The note with it: dose of 0.1 μmol, 4 h incubation. Here is the method:
E. coli strain LF82 was isolated from a chronic ileal lesion of a patient with Crohn's disease (CD). Bacteria were grown routinely in Luria-Bertani (LB) broth overnight at 37° C.
The transgenic mouse model CEABAC10 expressing the human CEACAM6 protein is available in the UMR Inserm/Université d'Auvergne 1071 led by Professor Arlette Darfeuille-Michaud at Clermont-Ferrand. This model is particularly suitable to reproduce the abnormal colonization by AIEC bacteria through the interaction with CEACAM6 molecules that were observed abnormally expressed in the ileal mucosa of Crohn's disease patients.
Three colonic loops were realized in anesthetized CEABAC10 mice. A volume of 100 μl of a bacterial suspension containing 6×10^6 bacteria/mL with or without inhibitory compound was injected into the loops (here, compound 2, example 1) or heptyl-mannose at a concentration of 100 μM). After an incubation period of 4 h, mice were euthanized and each loop was longitudinally opened, extensively washed and homogenized to numerate adherent LF82 bacteria. Bacterial adhesion was expressed as percentages of residual adhesion (100% corresponds to the adhesion in absence of any compound).

Setting [7] is: excluding spiky heat signals (2).

T1 sequence (P08191 22-179): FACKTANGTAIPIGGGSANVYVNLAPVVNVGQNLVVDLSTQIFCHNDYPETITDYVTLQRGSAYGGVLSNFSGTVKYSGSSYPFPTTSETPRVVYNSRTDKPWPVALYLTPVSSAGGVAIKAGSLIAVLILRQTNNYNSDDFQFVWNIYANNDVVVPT

As to `OC[C@H]1O[C@H](OCCCCCCCOCc2cn(C[C@H]3O[C@@H]4O[C@H]5[C@H](O)[C@@H](O)[C@@H](O[C@H]6[C@H](O)[C@@H](O)[C@@H](O[C@H]7[C@H](O)[C@@H](O)[C@@H](O[C@H]8[C@H](O)[C@@H](O)[C@@H](O[C@H]9[C@H](O)[C@@H](O)[C@@H](O[C@H]%10[C@H](O)[C@@H](O)[C@@H](O[C@H]3[C@H](O)[C@H]4O)O[C@@H]%10CO)O[C@@H]9CO)O[C@@H]8CO)O[C@@H]7CO)O[C@@H]6CO)O[C@@H]5CO)nn2)[C@@H](O)[C@@H](O)[C@@H]1O` [Compound 1], the MIC was above 200 µM in experiment [1] (UTI89 1.2 10^9 CFU/ml), 100 µM (≈ 149 µg/mL) in experiment [1] (UTI89 1.4 10^8 CFU/ml) and 63 µM (≈ 94 µg/mL) in experiment [1] (UTI89 7 10^7 CFU/ml). The “Affinity of FimH for the ligand (in words)” value in experiment [2] (ITC) is listed as “micromolar range”. Besides, the figures for the Kd in experiment [2] (data processed to exclude spiky heat signals (2)) and in experiment [2] (data processed to include the whole binding event (1)) were 0.625 µM and 1.64 µM, respectively. The “Molar ratio n meas” value amounted to 0.36 in experiment [2] (setting [7]) and 0.35 in experiment [2] (whole binding event (1)). Besides, the “ΔG°” value is -35.1 kJ/mol in experiment [2] (setting [7]) and -32.6 kJ/mol in experiment [2] (whole binding event (1)). Further, the “ΔH°” value in experiment [2] (setting [7]) is -23.4 kJ/mol; in experiment [2] (whole binding event (1)), -30.1 kJ/mol. In addition, the figures for the “ΔS°” value in experiment [2] (setting [7]) and in experiment [2] (whole binding event (1)) were 9.7 cal/mol/deg and 2.2 cal/mol/deg, respectively. Moreover, in experiment [3] (0.1 mM), the “Inhibition efficiency at decreased concentration” value was “important drop in the inhibition efficiency”. The “Reduction of the level of infection” value in experiment [3] (instillation of 1 mM with UTI89) is listed as 10 fold. In addition, in experiment [4] (post-incubation, 500 μM), the “Bacteria adherent to intestinal epithelial cells eliminated” value is listed as at most 40%. Also, in experiment [4] (pre-incubation assay), the “Concentration leading to decreased adhesion levels of at least 50%” value was 500 µM. Further, in the experiment on bladder cell line 5637, the “MIC, anti-adhesive potency on bladder cell line 5637” value was above 400 µM. For the same molecule, the “Concentration reaching around 75% of binding inhibition (25% line)” value in experiment [5] was determined as 500 µM.

Consider `CCCCCCCO[C@H]1O[C@H](CO)[C@@H](O)[C@H](O)[C@@H]1O` [heptyl-mannoside, Heptyl α-D-mannoside, reference compound], for which, in experiment [6], the “Bacterial adhesion in colonic loops compared with no inhibitor” value was “did not decrease significantly”.
